Measured values reported in patent US20120122948A1, “3-ALKYL-5-FLUOROINDOLE DERIVATIVES AS MYELOPEROXIDASE INHIBITORS” (UNIVERSITE LIBRE DE BEUXELLES, priority 2009, published 2012).
Counter-ions that a name gives are not always drawn. Like-named read-outs stand apart in the source and are kept apart here.

Tests used:
MPO [1] = molecular target: T1, MPO (Homo sapiens, UniProt P05164); assay: Inhibition of LDL oxidation by MPO, ELISA with Mab AG9; type: biochemical; details: for remaining activity at 0.05 µM / remaining activity at 0.1 µM / remaining activity at 1 µM / LDL oxidation (%): 5 min
T1 construct: made in house
T1 sequence (P05164 49-745): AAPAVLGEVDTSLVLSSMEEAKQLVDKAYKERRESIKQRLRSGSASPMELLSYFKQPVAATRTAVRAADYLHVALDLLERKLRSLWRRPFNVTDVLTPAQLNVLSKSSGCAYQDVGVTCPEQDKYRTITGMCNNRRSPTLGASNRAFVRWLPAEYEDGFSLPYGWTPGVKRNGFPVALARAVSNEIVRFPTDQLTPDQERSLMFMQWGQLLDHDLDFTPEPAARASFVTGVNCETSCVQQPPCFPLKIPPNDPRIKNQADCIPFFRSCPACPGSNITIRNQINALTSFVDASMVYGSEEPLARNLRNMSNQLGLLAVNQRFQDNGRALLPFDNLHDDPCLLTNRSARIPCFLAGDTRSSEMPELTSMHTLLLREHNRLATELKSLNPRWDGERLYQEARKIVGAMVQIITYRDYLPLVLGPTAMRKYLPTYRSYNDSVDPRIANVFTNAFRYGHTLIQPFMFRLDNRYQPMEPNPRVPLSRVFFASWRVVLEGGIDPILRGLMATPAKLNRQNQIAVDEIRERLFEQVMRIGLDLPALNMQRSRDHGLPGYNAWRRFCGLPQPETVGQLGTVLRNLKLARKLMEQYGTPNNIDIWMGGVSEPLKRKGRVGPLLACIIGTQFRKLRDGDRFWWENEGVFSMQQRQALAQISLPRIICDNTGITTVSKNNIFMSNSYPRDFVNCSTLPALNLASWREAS
Description: Recombinant MPO was prepared as previously described. Each batch solution is characterized by its protein concentration (mg/ml), its activity (U/ml), and its specific activity (U/mg). The chlorination activity was determined according to Hewson and Hager. Human plasma served for the isolation of LDL by ultracentrifugation according to Havel et al. Before oxidation, the LDL fraction (1.019<d<1.067 g/ml) was desalted by two consecutive passages through PD10 gel-filtration columns (Amersham Biosciences, The Netherlands) using PBS buffer. The different steps were carried out in the dark and the protein concentration was measured by the Lowry assay for both MPO and LDL.
The LDL oxidation was carried out at 37° C. in a final volume of 500 μl. The reaction mixture contained the following reagents at the final concentrations indicated between brackets: pH 7.2, PBS buffer, MPO (1 μg/ml), LDL (1000 μg/ml), 2 μl HCl 1N (4 mM), a compound of formula (Ia) of the present invention (50, 100 and 1000 nM), and H2O2 (100 μM). The reaction was stopped after 5 min by cooling the tubes in ice. The assay was performed as described by Moguilevsky et al. (Moguilevsky N., Zouaoui Boudjeltia Z., Babar S., Delrée P., Legssyer I., Carpentier Y., Vanhaeverbeek M., Ducobu J. Monoclonal antibodies against LDL progressively oxidized by myeloperoxidase react with ApoB-100 protein moiety and human atherosclerotic lesions. Biochem. Biophys. Res. Commun. 2004, 323, 1223-1228) in a NUNC maxisorp plate (VWR, Zaventem, Belgium): 200 ng/well of LDL was coated overnight at 4° C. in a sodium bicarbonate pH 9.8 buffer (100 μl). Afterwards, the plate was washed with TBS 80 buffer and then saturated during 1 h at 37° C. with the PBS buffer containing 1% BSA (150 μl/well). After washing the wells twice with the TBS 80 buffer, the monoclonal antibody Mab AG9 (200 ng/well) obtained according to a standard protocol and as previously described was added as a diluted solution in PBS buffer with 0.5% BSA and 0.1% of Polysorbate 20. After incubation for 1 h at 37° C., the plate was washed four times with the TBS 80 buffer and a 3000 times diluted solution of Ig G anti-mouse Alkaline Phosphatase (Promega, Leiden, The Netherlands) in the same buffer was added (100 μl/well). The wells were washed again four times and a revelation solution (150 μl/well) containing 5 mg of para-nitrophenyl phosphate in 5 ml of diethanolamine buffer was added for 30 min at room temperature. The reaction was stopped with 60 μl/well of NaOH 3 N solution. The measurement of the absorbance was performed at 405 nm with a background correction at 655 nm with a Bio-Rad photometer for a 96-well plate (Bio-Rad laboratories, CA, USA). Results were expressed as means of the percentage of LDL oxidation for six independent measurements.

MPO [2] = molecular target: T1, MPO; assay: Myeloperoxidase inhibition (MPO) assay, taurine chloramine production by the MPO/H2O2/Cl- system; type: biochemical; details: for 1/IC50: inhibition capability expressed as 1/IC50
From the text: The assay was based on the production of taurine chloramine produced by the MPO/H2O2/Cl^− system in the presence of a selected inhibitor at defined concentration. The procedure for detecting the inhibition of myeloperoxidase has been described in Van Antwerpen et al. (Development and validation of a screening procedure for the assessment of inhibition using a recombinant enzyme, Talanta, 2008, 75(2), 503-510) and is incorporated herewith by reference. Briefly, the reaction mixture contained the following reagents in a final volume of 200 μl: pH 7.4 phosphate buffer (PO4^3−10 mM/NaCl 300 mM), taurine (15 mM), a compound to be tested (up to 20 μM), and the fixed amount of the recombinant MPO (6.6 μl of MPO batch solution diluted 2.5 times, 40 nM). When necessary, the volume was adjusted with water. This mixture was incubated at 37° C. and the reaction initiated with 10.0 μl of H2O2 (100 μM). After 5 minutes, the reaction was stopped by the addition of 10 μl of catalase (8 U/μl). To determine the amount of taurine chloramines produced, 50 μl of 1.35 mM solution of thionitrobenzoic acid were added and the volume adjusted to 300 μl with water. Then, the absorbance of the solutions was measured at 412 nm with a microplate reader and the curve of the absorbance as a function of the inhibitor concentration was plotted. IC50 values against myeloperoxidase enzyme were then determined using standard procedures taking into account the absence of hydrogen peroxide as 100% of inhibition and the absence of inhibitors as 0% of inhibition.

[3] = pH 7.2, read-out: LDL oxidation (%)
[4] = recombinant MPO 40 nM, pH 7.4 phosphate buffer, 37° C., H2O2 100 μM, 5 minutes
[5] = pH 7.2, compound 50 nM, MPO 1 μg/ml, LDL 1000 μg/ml, pH 7.2, 37° C., mean of six measurements, read-out: LDL oxidation (%)
[6] = pH 7.2, compound 100 nM, MPO 1 μg/ml, LDL 1000 μg/ml, pH 7.2, 37° C., mean of six measurements, read-out: LDL oxidation (%)
[7] = pH 7.2, compound 1000 nM, MPO 1 μg/ml, LDL 1000 μg/ml, pH 7.2, 37° C., mean of six measurements, read-out: LDL oxidation (%)
[8] = value given in nM in the text on FIG. 2
[9] = compound 50 nM, MPO 1 μg/ml, LDL 1000 μg/ml, pH 7.2, 37° C., mean of six measurements
[10] = compound 100 nM, MPO 1 μg/ml, LDL 1000 μg/ml, pH 7.2, 37° C., mean of six measurements
[11] = compound 1000 nM, MPO 1 μg/ml, LDL 1000 μg/ml, pH 7.2, 37° C., mean of six measurements

| Compound | remaining activity at 0.05 µM (MPO [1]; [3]) | remaining activity at 0.1 µM (MPO [1]; [3]) | remaining activity at 1 µM (MPO [1]; [3]) | inhibition of LDL oxidation (in words) (MPO [1]; irrespective of its concentration in the medium) | 1/IC50 (MPO [2]) | IC50 (MPO [2]; [4]) | remaining activity at 0.05 µM (MPO [1]; [5]) | remaining activity at 0.1 µM (MPO [1]; [6]) | remaining activity at 1 µM (MPO [1]; [7]) | inhibition of LDL oxidation (in words) (MPO [1]; at low concentration) | IC50 (MPO [2]; [8]) | LDL oxidation (%) (MPO [1]; [9]) | LDL oxidation (%) (MPO [1]; [10]) | LDL oxidation (%) (MPO [1]; [11]) |
| --- | --- | --- | --- | --- | --- | --- | --- | --- | --- | --- | --- | --- | --- | --- |
| NCCc1c[nH]c2ccc(F)cc12 [Compound A, 5-fluorotryptamine, reference compound] | 119% | 111% | 41.5% | poorly effective | 5 ± 0.6 µM⁻¹ | 200 nM |  |  |  |  |  |  |  |  |
| NCCCc1c[nH]c2ccc(F)cc12 [Compound B, 3-(3-Aminopropyl)-5-fluoro-[1H]-indole] |  |  |  |  | 20 ± 4 µM⁻¹ | 50 ± 8 nM | 26% | 19% | 9% | excellent results |  |  |  |  |
| NCCCCc1c[nH]c2ccc(F)cc12 [Compound C, 3-(4-Aminobutyl)-5-fluoro-[1H]-indole oxalate] |  |  |  |  | 72 ± 19 µM⁻¹ | 15 nM | < 18.5% | < 18.5% | 6.1% | powerful performance | 15 ± 4 nM |  |  |  |
| CN(C)CCc1c[nH]c2ccc(F)cc12 [Compound D, N,N-Dimethyl-3-(2-aminoethyl)-5-fluoro-[1H]-indole] | 91.7% | 64.2% | 9.9% |  | 14 ± 7 µM⁻¹ | 90 ± 60 nM |  |  |  |  |  |  |  |  |
| Fc1ccc2[nH]cc(CCN3CCCC3)c2c1 [Compound E, 5-Fluoro-3-[2-(1-pyrrolidinyl)ethyl]-[1H]-indole] | 49.2% | 47.9% | 12.1% |  | 32 ± 19 µM⁻¹ | 40 ± 30 nM |  |  |  |  |  |  |  |  |
| CCN(CC)CCc1c[nH]c2ccc(F)cc12 [Compound F, N,N-Diethyl-3-(2-aminoethyl)-5-fluoro-[1H]-indole] | 80.1% | 60.2% | 8% |  | 7 ± 3 µM⁻¹ | 160 ± 80 nM |  |  |  |  |  |  |  |  |
| CN(C)CCCc1c[nH]c2ccc(F)cc12 [Compound H, N,N-Dimethyl-3-(3-aminopropyl)-5-fluoro-[1H]indole tartrate] |  |  |  |  | 11 ± 8 µM⁻¹ | 130 ± 90 nM | 42.4% | 39.7% | 8.4% |  |  |  |  |  |
| NCCCCCc1c[nH]c2ccc(F)cc12 [Compound K, 3-(5-Aminopentyl)-5-fluoro-[1H]-indole oxalate] |  |  |  |  | 122 ± 15 µM⁻¹ | 8 nM | 29.5% | 23.4% | 3.2% | powerful performance | 8 ± 1 nM |  |  |  |
| NCCCCCCc1c[nH]c2ccc(F)cc12 [Compound L, 3-(6-Aminohexyl)-5-fluoro-[1H]-indole oxalate] |  |  |  |  | 3.8 ± 0.2 µM⁻¹ | 260 ± 10 nM | 91.8% | 56.1% | 18.2% |  |  |  |  |  |
| N-Methyl-3-(3-aminopropyl)-5-fluoro-[1H]-indole tartrate [Compound G] |  |  |  |  | 6 ± 2 µM⁻¹ | 200 ± 200 nM |  |  |  | excellent results |  | 32.9% | 24.8% | 10.2% |
| N-Propyl-3-(3-aminopropyl)-5-fluoro-[1H]-indole [Compound J] |  |  |  |  | 6 ± 1 µM⁻¹ | 170 ± 30 nM |  |  |  |  |  | 79.9% | 42.5% | 5.6% |
